From patent publication US10550140B2 (Achillion Pharmaceuticals, Inc., priority 2014, dated 2020)

Biological target: Human factor D (Homo sapiens (Human), UniProt P00746)
Experiment: Human Factor D Assay
Type: biochemical
Protocol: The assay of Example 8 was used to determine the IC50's of the compounds. Other standard factor D inhibition assays are also available.
Example 8. Human Factor D Assay
Human factor D (purified from human serum, Complement Technology, Inc.) at 80 nM final concentration is incubated with test compound at various concentrations for 5 minutes at room temperature in 50 mM Tris, 1M NaCl, pH 7.5. A synthetic substrate Z-L-Lys-SBzl and DTNB (Ellman's reagent) are added to final concentrations of 100 μM each. The increase in color is recorded at OD405 nm in a microplate in kinetic mode over 30 minutes with 30 second time points in a spectrofluorimeter. IC50 values are calculated by non-linear regression from the percentage of inhibition of complement factor D activity as a function of test compound concentration.

Sequence of Human factor D (P00746 26-253): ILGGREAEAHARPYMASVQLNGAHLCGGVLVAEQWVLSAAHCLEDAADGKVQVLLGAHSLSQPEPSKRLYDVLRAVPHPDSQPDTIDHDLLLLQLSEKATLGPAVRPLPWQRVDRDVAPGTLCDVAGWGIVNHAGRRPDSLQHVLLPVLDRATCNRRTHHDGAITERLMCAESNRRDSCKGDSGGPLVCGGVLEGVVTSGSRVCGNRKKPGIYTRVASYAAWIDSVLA

CC(=O)c1cn(CC(=O)N2C[C@H](F)C[C@H]2C(=O)Nc2cccc(Br)c2)c2ccc(Oc3ncc(Br)cn3)cc12 [Compound 35]
IC50: < 1000 nM
